In brackets after ≈: the same amount, converted by molar mass. Where two headings read alike, the source gives them in different places.
Key:
[1] = tested on: Staphylococcus aureus 76 (MRSA, β-lactamase producing); assay: Broth microdilution MIC, S. aureus 76; assay type: cell-based; conditions: Staphylococcus aureus 76 (MRSA, β-lactamase producing); for MIC: read-out: MIC S. a. 76
Method: (§1) Compounds were evaluated for antimicrobial activity against a panel of bacterial strains using a broth microdilution assay performed as recommended by the NCCLS (NCCLS (National Committee for Clinical Laboratory Standards). 1993. Methods for dilution antimicrobial susceptibility tests for bacteria that grow aerobically. NCCLS Document M7-A3, 1993. In: NCCLS Antimicrobial Susceptibility Testing, 3rd Ed.)
(§2) The minimum inhibitory concentration (MIC) is defined as the lowest concentration of a compound that prevents the growth of the bacteria.

[2] = tested on: S. aureus strain Smith; assay: Experimental infection of mice, ED50; assay type: in vivo, Swiss-Webster mice; conditions: 50% efficacious dose, S. aureus Smith, mice challenged intraperitoneally, compound subcutaneously at 0 and 2 h, total dose, 72 h survival; for ED50: Staphylococcus aureus, read-out: ED50, mg/kg (95% C.I.)
Method: Staphylococcus aureus strain Smith (ATCC 13709, penicillin-susceptible) or strain 76 (methicillin-resistant) was cultured overnight at 37° C. in brain-heart infusion broth (BHIB). The following morning, a portion of the culture was transferred to fresh BHIB and incubated for an additional 4-5 hours at 37° C. The cells were harvested by centrifugation, washed twice with PBS, and adjusted to the desired inoculum amount. The cell suspension was mixed with an equal volume of sterile 14% hog-gastric mucin (Comber K. R.; Osborne C. D.; Sutherland R.: Comparative effects of amoxicillin and ampicillin in the treatment of experimental mouse infections. Antimicrobial Agents and Chemotherapy 7(2):179-185, 1975). The inoculum was kept in an ice bath until used (preferably in less than one hour).
Male Swiss-Webster mice were challenged intraperitoneally with 0.5 mL of a bacterial suspension of S. aureus strain Smith (LD50). Test compounds were administered subcutaneously in 0.1 mL volumes immediately after inoculation and 2 hours later. […] The total dose associated with 50% survival (ED50) was determined using the probit method (Pasiello, A. P., J. M. Essigmann, and G. N. Wogan.: Rapid and accurate determination of median lethal dose (LD50) and its error with a small computer. J Toxicol. Environ. Health. 3:797-809, 1977).

[3] = tested on: Staphylococcus aureus COL (MRSA, non-β-lactamase producing); assay: Broth microdilution MIC, S. aureus COL; assay type: cell-based; conditions: Staphylococcus aureus COL (MRSA, non-β-lactamase producing); for MIC: read-out: MIC S. a. COL
Method: as §1, §2

[4] = tested on: Staphylococcus aureus ATCC 29213 (MSSA); assay: Broth microdilution MIC, S. aureus ATCC 29213; assay type: cell-based; conditions: Staphylococcus aureus ATCC 29213 (MSSA); for MIC: read-out: MIC S. a. 29213
Method: as §1, §2

[5] = tested on: Staphylococcus aureus Smith (MSSA); assay: Broth microdilution MIC, S. aureus Smith; assay type: cell-based; conditions: Staphylococcus aureus Smith (MSSA); for MIC: read-out: MIC S. a. Smith
Method: as §1, §2

[6] = tested on: Enterococcus faecium ATCC 35667; assay: Broth microdilution MIC, E. faecium ATCC 35667; assay type: cell-based; conditions: Enterococcus faecium ATCC 35667; for MIC: ATCC35667, read-out: MIC E. f. 35667
Method: as §1, §2

[7] = tested on: Enterococcus faecalis ATCC 29212; assay: Broth microdilution MIC, E. faecalis ATCC 29212; assay type: cell-based; conditions: Enterococcus faecalis ATCC 29212; for MIC: ATCC29212, read-out: MIC E. f. 29212
Method: as §1, §2

[8] = Human serum binding by ultrafiltration; assay type: in vitro ADME
Method: Binding of several representative compounds of this invention in pooled human serum was determined using ultrafiltration. Compounds were incubated in serum for 10 minutes at 37° C. in a shaking water bath. Serum ultrafiltrate was accomplished by centrifugation (Amicon Centrifree) for 20 minutes at 25° C. Compound content in the ultrafiltrate was quantified by HPLC. An ultrafilrate obtained by following the same procedure with no added compound was used as a standard.

[9] = pooled human serum, ultrafiltration, 10 minutes at 37° C.

MIC [1]	MIC [3]	MIC [4]	MIC [5]	MIC [6]	MIC [7]	HSB, human serum binding [8, 9]	MIC S. a. 76 [1]	MIC S. a. COL [3]	MIC S. a. 29213 [4]	MIC S. a. Smith [5]	MIC E. f. 35667 [6]	MIC E. f. 29212 [7]	Structure (SMILES)	ED50 [2]	ED50, mg/kg (95% C.I.) [2]	HSB, human serum binding [8]
4 µg/mL (≈ 6.54 µM)	2 µg/mL (≈ 3.27 µM)	0.5 µg/mL (≈ 0.817 µM)	0.5 µg/mL (≈ 0.817 µM)	4 µg/mL (≈ 6.54 µM)	2 µg/mL (≈ 3.27 µM)	–	–	–	–	–	–	–	Nc1nc(/C(=N/OC2CCCC2)C(=O)N[C@@H]2C(=O)N3C(C(=O)O)=C(Sc4ccnn4-c4ccccc4)CS[C@H]23)cs1 [Compound 13]	> 10 mg/kg	–	–
4 µg/mL (≈ 6.41 µM)	2 µg/mL (≈ 3.2 µM)	0.5 µg/mL (≈ 0.801 µM)	0.5 µg/mL (≈ 0.801 µM)	4 µg/mL (≈ 6.41 µM)	1 µg/mL (≈ 1.6 µM)	–	–	–	–	–	–	–	Nc1nc(/C(=N/OCCF)C(=O)N[C@@H]2C(=O)N3C(C(=O)O)=C(Sc4ccnn4-c4ccccc4)CS[C@H]23)c(Cl)s1 [Compound 16]	–	–	–
4 µg/mL (≈ 6.52 µM)	2 µg/mL (≈ 3.26 µM)	0.5 µg/mL (≈ 0.815 µM)	–	4 µg/mL (≈ 6.52 µM)	2 µg/mL (≈ 3.26 µM)	–	–	–	–	–	–	–	CCC(CC)O/N=C(\C(=O)N[C@@H]1C(=O)N2C(C(=O)O)=C(Sc3ccnn3-c3ccccc3)CS[C@H]12)c1csc(N)n1 [Compound 17]	> 10 mg/kg	–	–
16 µg/mL (≈ 26.7 µM)	8 µg/mL (≈ 13.3 µM)	1 µg/mL (≈ 1.67 µM)	1 µg/mL (≈ 1.67 µM)	16 µg/mL (≈ 26.7 µM)	2 µg/mL (≈ 3.33 µM)	–	–	–	–	–	–	–	CC(C)(C)O/N=C(\C(=O)N[C@@H]1C(=O)N2C(C(=O)O)=C(Sc3ccnn3-c3ccccc3)CS[C@H]12)c1csc(N)n1 [Compound 18]	–	–	–
8 µg/mL (≈ 13.4 µM)	4 µg/mL (≈ 6.69 µM)	0.5 µg/mL (≈ 0.837 µM)	0.5 µg/mL (≈ 0.837 µM)	16 µg/mL (≈ 26.8 µM)	16 µg/mL (≈ 26.8 µM)	–	–	–	–	–	–	–	Nc1nc(/C(=N/OCC2CC2)C(=O)N[C@@H]2C(=O)N3C(C(=O)O)=C(Sc4ccnn4-c4ccccc4)CS[C@H]23)cs1 [Compound 19]	> 10 mg/kg	–	–
16 µg/mL (≈ 27.4 µM)	8 µg/mL (≈ 13.7 µM)	1 µg/mL (≈ 1.71 µM)	0.5 µg/mL (≈ 0.857 µM)	32 µg/mL (≈ 54.8 µM)	32 µg/mL (≈ 54.8 µM)	–	–	–	–	–	–	–	C=CCO/N=C(\C(=O)N[C@@H]1C(=O)N2C(C(=O)O)=C(Sc3ccnn3-c3ccccc3)CS[C@H]12)c1csc(N)n1 [Compound 20]	–	–	–
2 µg/mL (≈ 3.68 µM)	2 µg/mL (≈ 3.68 µM)	0.5 µg/mL (≈ 0.921 µM)	0.125 µg/mL (≈ 0.23 µM)	1 µg/mL (≈ 1.84 µM)	0.25 µg/mL (≈ 0.46 µM)	>99%	–	–	–	–	–	–	Nc1nc(/C(=N/O)C(=O)N[C@@H]2C(=O)N3C(C(=O)O)=C(Sc4ccncc4CO)CS[C@H]23)c(Cl)s1 [Compound 28]	–	–	–
–	–	–	–	–	–	–	2 µg/mL (≈ 3.07 µM)	1 µg/mL (≈ 1.54 µM)	0.125 µg/mL (≈ 0.192 µM)	0.25 µg/mL (≈ 0.384 µM)	0.5 µg/mL (≈ 0.768 µM)	0.125 µg/mL (≈ 0.192 µM)	Nc1nc(/C(=N/O)C(=O)N[C@@H]2C(=O)N3C(C(=O)O)=C(Sc4ccncc4CSc4cccnc4N)CS[C@H]23)c(Cl)s1 [Compound 29]	–	>5 mg/kg	–
–	–	–	–	–	–	–	32 µg/mL (≈ 62 µM)	16 µg/mL (≈ 31 µM)	0.5 µg/mL (≈ 0.969 µM)	0.125 µg/mL (≈ 0.242 µM)	16 µg/mL (≈ 31 µM)	1 µg/mL (≈ 1.94 µM)	Cn1ccnc1SC1=C(C(=O)O)N2C(=O)[C@@H](NC(=O)/C(=N\O)c3nc(N)sc3Cl)[C@H]2SC1 [Compound 31]	–	–	–
–	–	–	–	–	–	–	8 µg/mL (≈ 15 µM)	4 µg/mL (≈ 7.49 µM)	1 µg/mL (≈ 1.87 µM)	0.5 µg/mL (≈ 0.936 µM)	4 µg/mL (≈ 7.49 µM)	1 µg/mL (≈ 1.87 µM)	Cc1nnc(SC2=C(C(=O)O)N3C(=O)[C@@H](NC(=O)/C(=N\O)c4nc(N)sc4Cl)[C@H]3SC2)s1 [Compound 33]	–	–	–
1 µg/mL (≈ 1.92 µM)	0.5 µg/mL (≈ 0.962 µM)	< 0.06 µg/mL	0.06 µg/mL (≈ 0.115 µM)	0.5 µg/mL (≈ 0.962 µM)	0.125 µg/mL (≈ 0.24 µM)	96% (−)	–	–	–	–	–	–	Nc1nc(C(=NO)C(=O)N[C@@H]2C(=O)N3C(C(=O)O)=C(Sc4cnns4)CSC23)c(Cl)s1 (stereo partly drawn) [Compound 43, (7R)-7-[2-(2-Amino-5-chlorothiazol-4-yl)-2-hydroxyiminoacetylamino]-8-oxo-3-([1,2,3]thiadiazol-5-ylsulfanyl)-5-thia-1-aza-bicyclo[4.2.0]oct-2-ene-2-carboxylic acid]	–	–	–
4 µg/mL (≈ 7.72 µM)	4 µg/mL (≈ 7.72 µM)	0.5 µg/mL (≈ 0.965 µM)	1 µg/mL (≈ 1.93 µM)	0.5 µg/mL (≈ 0.965 µM)	0.125 µg/mL (≈ 0.241 µM)	–	–	–	–	–	–	–	Cc1noc(SC2=C(C(=O)O)N3C(=O)[C@@H](NC(=O)C(=NO)c4nc(N)sc4Cl)C3SC2)n1 (stereo partly drawn) [Compound 45, (7R)-7-[2-(2-Amino-5-chlorothiazol-4-yl)-2-hydroxyiminoacetylamino]-3-(3-methyl-[1,2,4]oxadiazol-5-ylsulfanyl)-8-oxo-5-thia-1-aza-bicyclo[4.2.0]oct-2-ene-2-carboxylic acid]	–	–	–
1 µg/mL (≈ 1.87 µM)	0.5 µg/mL (≈ 0.935 µM)	0.125 µg/mL (≈ 0.234 µM)	0.25 µg/mL (≈ 0.467 µM)	0.5 µg/mL (≈ 0.935 µM)	0.125 µg/mL (≈ 0.234 µM)	–	–	–	–	–	–	–	Nc1nsc(SC2=C(C(=O)O)N3C(=O)[C@@H](NC(=O)C(=NO)c4nc(N)sc4Cl)C3SC2)n1 (stereo partly drawn) [Compound 47, (7R)-7-[2-(2-Amino-5-chlorothiazol-4-yl)-2-hydroxyiminoacetylamino]-3-(3-amino-[1,2,4]thiadiazol-5-ylsulfanyl)-8-oxo-5-thia-1-aza-bicyclo[4.2.0]oct-2-ene-2-carboxylic acid]	–	–	–
8 µg/mL (≈ 16.4 µM)	4 µg/mL (≈ 8.22 µM)	0.25 µg/mL (≈ 0.514 µM)	–	2 µg/mL (≈ 4.11 µM)	1 µg/mL (≈ 2.06 µM)	–	–	–	–	–	–	–	Nc1nc(C(=NO)C(=O)N[C@@H]2C(=O)N3C(C(=O)O)=C(Sc4nncs4)CSC23)ns1 (stereo partly drawn) [Compound 50, (7R)-7-[2-(5-Amino-[1,2,4]thiadiazol-3-yl)-2-hydroxyiminoacetylamino]-8-oxo-3-([1,3,4]thiadiazol-2-ylsulfanyl)-5-thia-1-aza-bicyclo [4.2.0]oct-2-ene-2-carboxylic acid]	–	–	–
16 µg/mL (≈ 33.9 µM)	4 µg/mL (≈ 8.48 µM)	0.125 µg/mL (≈ 0.265 µM)	0.06 µg/mL (≈ 0.127 µM)	4 µg/mL (≈ 8.48 µM)	2 µg/mL (≈ 4.24 µM)	–	–	–	–	–	–	–	Nc1nc(CC(=O)N[C@@H]2C(=O)N3C(C(=O)O)=C(Sc4nnc(N)s4)CSC23)cs1 (stereo partly drawn) [Compound 51, 3-(5-Amino-[1,3,4]thiadiazol-2-ylsulfanyl)-(7R)-7-[2-(2-amino-thiazol-4-yl)-acetylamino]-8-oxo-5-thia-1-aza-bicyclo[4.2.0]oct-2-ene-2-carboxylic acid]	–	–	–
2 µg/mL (≈ 3.61 µM)	1 µg/mL (≈ 1.8 µM)	0.25 µg/mL (≈ 0.451 µM)	–	1 µg/mL (≈ 1.8 µM)	0.25 µg/mL (≈ 0.451 µM)	–	–	–	–	–	–	–	Nc1nc(C(=NO)C(=O)N[C@@H]2C(=O)N3C(C(=O)O)=C(Sc4nc(Cl)ns4)CSC23)c(Cl)s1 (stereo partly drawn) [Compound 52, (7R)-7-[2-(2-Amino-5-chlorothiazol-4-yl)-2-hydroxyiminoacetylamino]-3-(3-chloro-[1,2,4]thiadiazol-5-ylsulfanyl)-8-oxo-5-thia-1-aza-bicyclo[4.2.0]oct-2-ene-2-carboxylic acid]	–	–	–
32 µg/mL (≈ 107 µM)	16 µg/mL (≈ 53.4 µM)	< 0.02 µg/mL	0.25 µg/mL (≈ 0.835 µM)	4 µg/mL (≈ 13.4 µM)	1 µg/mL (≈ 3.34 µM)	–	–	–	–	–	–	–	C[C@@H](O)[C@H]1C(=O)N2C(C(=O)O)=C(SCCN=CN)C[C@H]12 [Imipenem, reference compound]	0.15 mg/kg	–	–

Structure (SMILES)	MIC [1]	MIC [3]	MIC [4]	MIC [5]	MIC [6]	MIC [7]	HSB, human serum binding [8, 9]	MIC S. a. 76 [1]	MIC S. a. COL [3]	MIC S. a. 29213 [4]	MIC S. a. Smith [5]	MIC E. f. 35667 [6]	MIC E. f. 29212 [7]	ED50 [2]	ED50, mg/kg (95% C.I.) [2]	HSB, human serum binding [8]
NC(=O)NCCSCc1cnccc1SC1=C(C(=O)O)N2C(=O)[C@@H](NC(=O)/C(=N\O)c3nc(N)sc3Cl)[C@H]2SC1 [Compound 30]	–	–	–	–	–	–	–	4 µg/mL (≈ 6.2 µM)	4 µg/mL (≈ 6.2 µM)	0.5 µg/mL (≈ 0.775 µM)	0.5 µg/mL (≈ 0.775 µM)	–	0.125 µg/mL (≈ 0.194 µM)	–	–	96%

Reference: patent US6599893B2, “Cephalosporin antibiotics and prodrugs thereof” (Essential Therapeutics, Inc., priority 2000, dated 2003)
